Assay results from article PMC7923269 (Journal of Personalized Medicine, 2021).
Like-named read-outs stand apart in the source and are kept apart here.

How the values were obtained:
CYP3A [1] = conditions: for Inhibition ratio of urinary 1β-OH-DCA excretion: after/before inhibition by fluvoxamine + voriconazole; for Urinary 1β-OH-DCA excretion: geometric mean (95% CI)
CYP3A [2] = assay: Oral midazolam pharmacokinetics (CYP3A phenotyping) in healthy volunteers at baseline, after inhibition and after induction; format: in vivo, human; conditions: MDZ 1 mg oral; for Cmax: human, plasma, po
Procedure: Healthy volunteers were administered, as part of the Geneva cocktail, MDZ 1 mg for CYP3A phenotyping at baseline (control session). During the inhibition session, participants received MDZ 1 mg after fluvoxamine intake (50 mg, two doses 12 h and 2 h before MDZ administration) and voriconazole intake (400 mg, one dose 2 h before MDZ administration). MDZ 1 mg was also received after a pretreatment with the inducer rifampicin (600 mg, one tablet every evening for seven days until the evening before administration of MDZ) (induction session). Urine samples were collected over 8 h after MDZ administration at each session. Venous blood samples (3 mL) were collected before (time 0) as well as 0.5, 1, 2, 3, 4, 6, and 8 h after probe drug administration. Breakfast and lunch were served approximately 1 h and 4 h, respectively, after the blood sampling. The trial is registered at http://www.clinicaltrials.gov (NCT01731067).
Analyses of MDZ and OH-MDZ in plasma were performed using a single reverse-phase high-performance liquid chromatography coupled with tandem mass spectrometry (LC-MS/MS) method as described in the study of Bosilkosvka et al..
The pharmacokinetic parameters of MDZ were obtained by standard noncompartmental methods using WinNonlin version 6.2.1 (Pharsight, Mountain View, CA, USA).
Inhibition ratios were calculated as follows:(1) Inhibition ratio = Metricafter inhibition/Metricbefore inhibition.
Similarly, induction ratios were calculated as follows:(3) Induction ratio = Metricafter induction/Metricbefore induction.

CYP3A [3] = tested on: CYP3A; set-up: method as in PMID 19701237; conditions: after clarithromycin 250 mg twice daily for five days vs baseline; p = 0.04; cited from earlier work
[4] = induction session (rifampicin 600 mg, 7 days)
[5] = inhibition session (fluvoxamine + voriconazole)

SMILES: C[C@H](CCC(=O)O)[C@H]1CC[C@H]2[C@@H]3CC[C@@H]4C[C@H](O)C[C@@H](O)[C@]4(C)[C@H]3C[C@H](O)[C@]12C [1β-OH-DCA, 1β-hydroxy-deoxycholic acid]
- Inhibition ratio of urinary 1β-OH-DCA excretion (CYP3A [1]): 0.62
- Inhibition ratio of urinary 1β-OH-DCA excretion (CYP3A [1]; listed as 1β-OH -DCA): 0.62 (0.26–1.5)
- Urinary 1β-OH-DCA excretion (CYP3A [1]; baseline): 15.5 (5.8–41.3) µg/8 h
- Urinary 1β-OH-DCA excretion (CYP3A [1]; [4]): 61.8 (30.9–123.3) µg/8 h
- Urinary 1β-OH-DCA excretion (CYP3A [1]; [5]): 9.6 (4.1–22.5) µg/8 h

SMILES: Cc1ncc2n1-c1ccc(Cl)cc1C(c1ccccc1F)=NC2 [MDZ, midazolam]
- Oral MDZ CL (CYP3A [2]; baseline, geometric mean (95% CI)): 143.0 (107.1–191.0) L/h
- Oral MDZ CL (CYP3A [2]; [4]): 3296 (2351–4622) L/h
- Oral MDZ CL (CYP3A [2]; [5]): 24.0 (19.7–29.3) L/h
- Cmax (CYP3A [2]; 1 mg, baseline): 3.1 ng/mL
- Cmax (CYP3A [2]; [4]): 0.15 ng/mL
- Cmax (CYP3A [2]; [5]): 11.7 ng/mL

SMILES: C[C@]12CCC(=O)C=C1CC[C@@H]1[C@@H]2[C@@H](O)C[C@@]2(C)[C@H]1CC[C@]2(O)C(=O)CO [cortisol]
- Increase in area under the concentration-time curve of plasma endogenous cortisol (CYP3A [3]): 19%
